The test system of data set [1] is MCF7. The experiment in a line: Cytotoxicity against human MCF7 cells after 7 days by MTT assay. The class given is functional. The following applies: MCF7, 168 h, read-out: ED50 (the source's name).
Data set [2] concerns PC-3. The experiment in a line: Cytotoxicity against human PC3 cells after 7 days by MTT assay. In kind it is functional. As to conditions: PC-3, 168 h, read-out: ED50 (the source's name). In general terms: Tetrazolium assays rely on reduction of a dye to a coloured formazan, in cell work by metabolically active cells.
Data set [3] relates to A498. In words: Cytotoxicity against human A498 cells after 7 days by MTT assay. The class given is functional. The following applies: A498, 168 h, read-out: ED50 (the source's name).
The subject of data set [4] is HT-29. The experiment in a line: Cytotoxicity against human HT-29 cells after 7 days by MTT assay. The class given is functional. As to conditions: HT-29, 168 h, read-out: ED50 (the source's name).
Data set [5] relates to A549. The experiment in a line: Cytotoxicity against human A549 cells after 7 days by MTT assay. The following applies: A549, 168 h, read-out: ED50 (the source's name). In kind it is functional.
In data set [6] the test system is MIA PaCa-2. The experiment in a line: Cytotoxicity against human MIAPaCa2 cells after 7 days by MTT assay. As to conditions: MIA PaCa-2, 168 h, read-out: ED50 (the source's name). In kind it is functional.
Data set [7] relates to Aedes aegypti. In words: Cytotoxicity against yellow fever mosquitoes. The class given is functional.
Data set [8] in a line: Toxicity against brine shrimp larvae. The class given is organism-based. As to conditions: artemia, in vivo.

Seven compounds from ChEMBL document CHEMBL1158849, “New bioactive triterpenoids from Melia volkensii” (J Nat Prod, 1998) can be followed below.

Molecules are shown by their SMILES. ≈ marks a conversion by molar mass, not a printed value.

Consider `CC(=O)O[C@H]1C[C@@H](OC(=O)c2ccccc2)C(C)(C)[C@@H]2C[C@@H](OC(C)=O)[C@@]3(C)C4=CC[C@@H](C5COC(=O)C5)[C@]4(C)CC[C@@H]3[C@@]12C` (some centres not stated) [MELIANIN C], for which the EC50 in data set [1] is 14.5 µg/mL (≈ 23.3 µM); in data set [2] it was 0.473 µg/mL (≈ 0.762 µM); in data set [3] it was 26.5 µg/mL (≈ 42.7 µM); in data set [4], 18.1 µg/mL (≈ 29.1 µM); in data set [5], 21.9 µg/mL (≈ 35.2 µM); in data set [6], 20.6 µg/mL (≈ 33.2 µM).

Take `CC(=O)O[C@@H]1C[C@H](OC(=O)c2ccccc2)[C@@]2(C)[C@H]3[C@H](OC[C@]13C)[C@@H](O)[C@@]1(C)C3=CC[C@@H](c4ccoc4)[C@]3(C)CC[C@@H]12` [MELIAVOLKININ]: the EC50 in data set [1] is 27.8 µg/mL (≈ 48.4 µM); in data set [2], 1.02 µg/mL (≈ 1.77 µM); in data set [3] it was 26.9 µg/mL (≈ 46.8 µM); in data set [4] it was 28.1 µg/mL (≈ 48.8 µM); in data set [5], 25.4 µg/mL (≈ 44.1 µM); in data set [6], 16.7 µg/mL (≈ 29.1 µM). Also, the figures for the LC50 in data set [7] and in data set [8] were 59.7 µg/mL (≈ 104 µM) and 5.37 µg/mL (≈ 9.34 µM), respectively.

Take `CC(=O)O[C@H]1C[C@@H](OC(=O)c2ccccc2)C(C)(C)[C@@H]2C[C@@H](OC(C)=O)[C@@]3(C)C4=CC[C@@H](C5COC(C)(C)[C@@H](O)[C@H](O)C5)[C@]4(C)CC[C@@H]3[C@@]12C` (some centres not stated) [MELIANIN B]: the EC50 in data set [1] was determined as 3.29 µg/mL (≈ 4.73 µM); in data set [2], 0.393 µg/mL (≈ 0.566 µM); in data set [3], 3.67 µg/mL (≈ 5.28 µM); in data set [4], 2.15 µg/mL (≈ 3.09 µM); in data set [5], 1.68 µg/mL (≈ 2.42 µM); in data set [6] it was 2.09 µg/mL (≈ 3.01 µM). The LC50 in data set [7] and in data set [8] was above 100 µg/mL in each case.

Consider `COc1cccc2c1C(=O)c1c(O)c3c(c(O)c1C2=O)C[C@@](O)(C(=O)CO)C[C@@H]3O[C@H]1C[C@H](N)[C@H](O)[C@H](C)O1` [DOXORUBICIN], for which the EC50 in data set [1] is 0.253 µg/mL (≈ 0.465 µM); in data set [2], 0.0276 µg/mL (≈ 0.0508 µM); in data set [3], 0.00424 µg/mL (≈ 0.0078 µM); in data set [4], 0.0351 µg/mL (≈ 0.0646 µM); in data set [6], 0.0133 µg/mL (≈ 0.0245 µM).

On to `CC(=O)O[C@H]1C[C@@H](OC(=O)c2ccccc2)C(C)(C)[C@@H]2C[C@@H](OC(C)=O)[C@@]3(C)C4=CC(=O)[C@@H](C5COC(C)(C)C(=O)C(=O)C5)[C@]4(C)CC[C@@H]3[C@@]12C` (some centres not stated) [16,23,24-TRIKETOMELIANIN B], for which the EC50 is 2.61 µg/mL (≈ 3.7 µM) in data set [1]; 2.1 µg/mL (≈ 2.98 µM) in data set [2]; 4.15 µg/mL (≈ 5.89 µM) in data set [3]; 6.36 µg/mL (≈ 9.02 µM) in data set [4]; 18.2 µg/mL (≈ 25.8 µM) in data set [5]; 3.32 µg/mL (≈ 4.71 µM) in data set [6].

Regarding `CC(=O)O[C@H]1C[C@@H](OC(C)=O)[C@@]2(C)CO[C@@H]3[C@@H](O)[C@@]4(C)C5=CC[C@@H](c6ccoc6)[C@]5(C)CC[C@@H]4[C@]1(C)[C@@H]32`, the EC50 in data set [1] amounted to 2.42 µg/mL (≈ 4.72 µM); in data set [2] it was 2.78 µg/mL (≈ 5.42 µM); in data set [3] it was 3.35 µg/mL (≈ 6.53 µM); in data set [4] it was 3.73 µg/mL (≈ 7.28 µM); in data set [5] it was 3.29 µg/mL (≈ 6.42 µM); in data set [6] it was 3.06 µg/mL (≈ 5.97 µM). The LC50 in data set [7] amounted to 29.2 µg/mL (≈ 56.9 µM); in data set [8] it was 10 µg/mL (≈ 19.5 µM).

Turning to `CC(=O)O[C@H]1C[C@@H](OC(=O)c2ccccc2)C(C)(C)[C@@H]2C[C@@H](OC(C)=O)[C@@]3(C)C4=CC[C@@H](C5COC(C)(C)C(=O)C(=O)C5)[C@]4(C)CC[C@@H]3[C@@]12C` (some centres not stated), the EC50 in data set [1] was determined as 6.13 µg/mL (≈ 8.87 µM); in data set [2], 0.0281 µg/mL (≈ 0.0407 µM); in data set [3] it was 4.78 µg/mL (≈ 6.92 µM); in data set [4] it was 6.25 µg/mL (≈ 9.05 µM); in data set [5], 1.07 µg/mL (≈ 1.55 µM); in data set [6], 0.013 µg/mL (≈ 0.0188 µM).

One may read the LC50 as the concentration lethal to half of the exposed cells or organisms.
